Like-named read-outs stand apart in the source and are kept apart here.
Key:
[1] = Solubility of nomegestrol acetate in solvent mixtures; type: physicochemical; settings: ethanol/water/propyleneglycol ternary mixture, aqueous with cosolvent or surfactant or cyclodextrin, read-out: Solubilities
Method: The effect of a ternary mixture of solvents, ethanol/water (45:55)/propyleneglycol on the solubility of nomegestrol acetate was determined.
We also examined the possibility of lowering the proportion of alcohol in the solvent, by means of this ternary mixture, while maintaining similar solubility; for this we choose the influence of propyleneglycol on solubility in ethanol/water systems (40:60 and 30:70).

[2] = Clinical example No. 1: plasma nomegestrol acetate after gel applied daily to both breasts; type: in vivo, women
Method: In these examples, clinical trials were carried out on women, with the gel containing 0.11% of nomegestrol acetate, whose formulation is given in Table 1 of example I.
Twenty-four volunteers, women in good health and in the period of ovarian activity, with average age of 23.5 years, were treated on 15 consecutive days with 4 mg of nomegestrol acetate in a gel applied every day to both breasts.
Repeated blood samples were taken in the hours following the first and last administration, on 9 occasions (6 times before application of the gel and 3 times 3 hours afterwards), between the 2nd and the 14th day of treatment. The plasma of these samples was analysed for nomegestrol acetate by liquid chromatography combined with mass spectrometry.

[3] = tested on: breast pain; experiment: Clinical example No. 3: breast pain in premenopausal women treated with gel on both breasts; type: in vivo; settings: 55 women, 4 mg/day as gel on both breasts
Method: In these examples, clinical trials were carried out on women, with the gel containing 0.11% of nomegestrol acetate, whose formulation is given in Table 1 of example I. […], who had been suffering from breast pains for more than 3 months and for at least 7 days per cycle, were treated for an average time of 130 days with 4 mg of nomegestrol acetate applied each day, on the last 15 days of the menstrual cycle, in the form of a gel on both breasts. Efficacy was assessed after 3 months and at the end of treatment using a visual analogue scale for quantifying breast pain.

[4] = Solubility of nomegestrol acetate in solvent mixtures; type: physicochemical
[5] = after the last administration (15 consecutive days)
[6] = first day of treatment, 4 mg nomegestrol acetate in 0.11% gel on both breasts

Q: What does the source list for `CC(=O)O[C@]1(C(C)=O)CC[C@H]2[C@@H]3C=C(C)C4=CC(=O)CC[C@@H]4[C@H]3CC[C@@]21C` [nomegestrol acetate]?
A: solubility ([1]; System I (Ethanol 95° 30%/Demineralized water 70%), 2% propyleneglycol): 600 µg/mL; solubility ([1]; System II (Ethanol 95° 40%/Demineralized water 60%), 2% propyleneglycol): 2600 µg/mL; solubility ([1]; System II (Ethanol 95° 40%/Demineralized water 60%), 6% propyleneglycol): 3000 µg/mL; solubility ([1]; System II (Ethanol 95° 40%/Demineralized water 60%), 12% propyleneglycol): 3400 µg/mL; solubility ([1]; System III (Ethanol 95° 45%/Demineralized water 55%), 8% propyleneglycol): 7700 µg/mL; solubility ([1]; System III (Ethanol 95° 45%/Demineralized water 55%), 12% propyleneglycol): 7700 µg/mL; area under the curve from 0 to 48 hours [2, 5]: 18.43±2.091 ng/ml per h; maximum concentration (plasma) [2, 5]: 0.65 ± 0.073 ng/mL; state of equilibrium obtained ([2]; daily application): after the 3rd day of treatment; concentration at 72 h ([2]; female, human, plasma, topical, 4 mg, 72 hours after the last application, read-out: plasma level): 0.19 ± 0.027 ng/mL; area under the curve from 0 to 48 hours [2, 6]: 6.08±0.775 ng/ml per h; maximum concentration (plasma) [2, 6]: 0.25 ± 0.027 ng/mL; nomegestrol acetate in the blood (m±sd) [3]: 0.44 ± 0.30 ng/mL; solubility ([4]; 95° ethanol/water binary mixture, aqueous with cosolvent or surfactant or cyclodextrin, 95° ethanol/water binary mixture, 10% 95° ethanol, read-out: Solubility of nomegestrol acetate): 70 µg/mL; solubility ([4]; 95° ethanol/water binary mixture, aqueous with cosolvent or surfactant or cyclodextrin, 95° ethanol/water binary mixture, 20% 95° ethanol, read-out: Solubility of nomegestrol acetate): 113 µg/mL; solubility ([4]; 95° ethanol/water binary mixture, aqueous with cosolvent or surfactant or cyclodextrin, 95° ethanol/water binary mixture, 30% 95° ethanol, read-out: Solubility of nomegestrol acetate): 683 µg/mL; solubility ([4]; 95° ethanol/water binary mixture, aqueous with cosolvent or surfactant or cyclodextrin, 95° ethanol/water binary mixture, 40% 95° ethanol, read-out: Solubility of nomegestrol acetate): 2820 µg/mL; solubility ([4]; 95° ethanol/water binary mixture, aqueous with cosolvent or surfactant or cyclodextrin, 95° ethanol/water binary mixture, 50% 95° ethanol, read-out: Solubility of nomegestrol acetate): 7330 µg/mL; solubility ([4]; 95° ethanol/water binary mixture, aqueous with cosolvent or surfactant or cyclodextrin, 95° ethanol/water binary mixture, 60% 95° ethanol, read-out: Solubility of nomegestrol acetate): 17800 µg/mL; solubility ([4]; 95° ethanol/water binary mixture, aqueous with cosolvent or surfactant or cyclodextrin, 95° ethanol/water binary mixture, 70% 95° ethanol, read-out: Solubility of nomegestrol acetate): 24800 µg/mL; solubility ([4]; 95° ethanol/water binary mixture, aqueous with cosolvent or surfactant or cyclodextrin, 95° ethanol/water binary mixture, 80% 95° ethanol, read-out: Solubility of nomegestrol acetate): 29500 µg/mL; solubility ([4]; 95° ethanol/water binary mixture, aqueous with cosolvent or surfactant or cyclodextrin, 95° ethanol/water binary mixture, 90% 95° ethanol, read-out: Solubility of nomegestrol acetate): 26600 µg/mL; solubility ([4]; 95° ethanol/water binary mixture, organic solvent or mixture, 95° ethanol/water binary mixture, 100% 95° ethanol, read-out: Solubility of nomegestrol acetate): 32800 µg/mL; solubility ([4]; 95° ethanol/water binary mixture, water, 95° ethanol/water binary mixture, 0% 95° ethanol, read-out: Solubility of nomegestrol acetate): 56 µg/mL; solubility ([4]; aqueous-alcoholic solvent mixture, aqueous with cosolvent or surfactant or cyclodextrin, aqueous-alcoholic mixture, 0% propyleneglycol, 3% Solketal, read-out: Solubility of nomegestrol acetate): 6700 µg/mL; solubility ([4]; aqueous-alcoholic solvent mixture, aqueous with cosolvent or surfactant or cyclodextrin, aqueous-alcoholic mixture, 0% propyleneglycol, 3% Vitamin E TPGS, read-out: Solubility of nomegestrol acetate): 7650 µg/mL; solubility ([4]; aqueous-alcoholic solvent mixture, aqueous with cosolvent or surfactant or cyclodextrin, aqueous-alcoholic mixture, 0% propyleneglycol, 8% Solketal, read-out: Solubility of nomegestrol acetate): 8600 µg/mL; solubility ([4]; aqueous-alcoholic solvent mixture, aqueous with cosolvent or surfactant or cyclodextrin, aqueous-alcoholic mixture, 0% propyleneglycol, 8% Transcutol®, read-out: Solubility of nomegestrol acetate): 10700 µg/mL; solubility ([4]; aqueous-alcoholic solvent mixture, aqueous with cosolvent or surfactant or cyclodextrin, aqueous-alcoholic mixture, 0% propyleneglycol, 8% Vitamin E TPGS, read-out: Solubility of nomegestrol acetate): 11100 µg/mL; solubility ([4]; aqueous-alcoholic solvent mixture, aqueous with cosolvent or surfactant or cyclodextrin, aqueous-alcoholic mixture, 3% propyleneglycol, 8% Transcutol®, read-out: Solubility of nomegestrol acetate): 10600 µg/mL; solubility ([4]; aqueous-alcoholic solvent mixture, aqueous with cosolvent or surfactant or cyclodextrin, aqueous-alcoholic mixture, 8% propyleneglycol, 0% Solketal, read-out: Solubility of nomegestrol acetate): 7700 µg/mL; solubility ([4]; aqueous-alcoholic solvent mixture, aqueous with cosolvent or surfactant or cyclodextrin, aqueous-alcoholic mixture, 8% propyleneglycol, 0% Transcutol®, read-out: Solubility of nomegestrol acetate): 7700 µg/mL; solubility ([4]; aqueous-alcoholic solvent mixture, aqueous with cosolvent or surfactant or cyclodextrin, aqueous-alcoholic mixture, 8% propyleneglycol, 0% Vitamin E TPGS, read-out: Solubility of nomegestrol acetate): 7700 µg/mL; solubility ([4]; aqueous-alcoholic solvent mixture, aqueous with cosolvent or surfactant or cyclodextrin, aqueous-alcoholic mixture, 8% propyleneglycol, 3% Solketal, read-out: Solubility of nomegestrol acetate): 10700 µg/mL; solubility ([4]; aqueous-alcoholic solvent mixture, aqueous with cosolvent or surfactant or cyclodextrin, aqueous-alcoholic mixture, 8% propyleneglycol, 3% Transcutol®, read-out: Solubility of nomegestrol acetate): 7950 µg/mL; solubility ([4]; aqueous-alcoholic solvent mixture, aqueous with cosolvent or surfactant or cyclodextrin, aqueous-alcoholic mixture, 8% propyleneglycol, 3% Vitamin E TPGS, read-out: Solubility of nomegestrol acetate): 12500 µg/mL; solubility ([4]; ethanol/water/Labrasol solvent mixture with propyleneglycol, aqueous with cosolvent or surfactant or cyclodextrin, System Ethanol 95° 45%/Water 50%/Labrasol® 5%, 10% propyleneglycol, read-out: Solubility of l'nomegestrol acetate): 9500 µg/mL; solubility ([4]; ethanol/water/Labrasol solvent mixture with propyleneglycol, aqueous with cosolvent or surfactant or cyclodextrin, System Ethanol 95° 45%/Water 50%/Labrasol® 5%, 15% propyleneglycol, read-out: Solubility of l'nomegestrol acetate): 10200 µg/mL; solubility ([4]; ethanol/water/Labrasol solvent mixture, aqueous with cosolvent or surfactant or cyclodextrin, System Ethanol 95° 45%/Water 50%/Labrasol® 5%, 0% propyleneglycol, read-out: Solubility of l'nomegestrol acetate): 9400 µg/mL; solubility ([4]; ethanol/water/propyleneglycol solvent mixture, aqueous with cosolvent or surfactant or cyclodextrin, System III (Ethanol 95° 45%/Demineralized water 55%), 2% propyleneglycol, read-out: Solubilities): 5100 µg/mL; solubility ([4]; ethanol/water/propyleneglycol ternary mixture, aqueous with cosolvent or surfactant or cyclodextrin, System I (Ethanol 95° 30%/Demineralized water 70%), 0% propyleneglycol, read-out: Solubilities): 600 µg/mL; solubility ([4]; ethanol/water/propyleneglycol ternary mixture, aqueous with cosolvent or surfactant or cyclodextrin, System I (Ethanol 95° 30%/Demineralized water 70%), 4% propyleneglycol, read-out: Solubilities): 500 µg/mL; solubility ([4]; ethanol/water/propyleneglycol ternary mixture, aqueous with cosolvent or surfactant or cyclodextrin, System I (Ethanol 95° 30%/Demineralized water 70%), 6% propyleneglycol, read-out: Solubilities): 700 µg/mL; solubility ([4]; ethanol/water/propyleneglycol ternary mixture, aqueous with cosolvent or surfactant or cyclodextrin, System I (Ethanol 95° 30%/Demineralized water 70%), 8% propyleneglycol, read-out: Solubilities): 1000 µg/mL; solubility ([4]; ethanol/water/propyleneglycol ternary mixture, aqueous with cosolvent or surfactant or cyclodextrin, System I (Ethanol 95° 30%/Demineralized water 70%), 12% propyleneglycol, read-out: Solubilities): 1100 µg/mL; solubility ([4]; ethanol/water/propyleneglycol ternary mixture, aqueous with cosolvent or surfactant or cyclodextrin, System I (Ethanol 95° 30%/Demineralized water 70%), 20% propyleneglycol, read-out: Solubilities): 1500 µg/mL; solubility ([4]; ethanol/water/propyleneglycol ternary mixture, aqueous with cosolvent or surfactant or cyclodextrin, System II (Ethanol 95° 40%/Demineralized water 60%), 0% propyleneglycol, read-out: Solubilities): 2900 µg/mL; solubility ([4]; ethanol/water/propyleneglycol ternary mixture, aqueous with cosolvent or surfactant or cyclodextrin, System II (Ethanol 95° 40%/Demineralized water 60%), 4% propyleneglycol, read-out: Solubilities): 2600 µg/mL; solubility ([4]; ethanol/water/propyleneglycol ternary mixture, aqueous with cosolvent or surfactant or cyclodextrin, System II (Ethanol 95° 40%/Demineralized water 60%), 8% propyleneglycol, read-out: Solubilities): 3200 µg/mL; solubility ([4]; ethanol/water/propyleneglycol ternary mixture, aqueous with cosolvent or surfactant or cyclodextrin, System II (Ethanol 95° 40%/Demineralized water 60%), 20% propyleneglycol, read-out: Solubilities): 3900 µg/mL; solubility ([4]; ethanol/water/propyleneglycol ternary mixture, aqueous with cosolvent or surfactant or cyclodextrin, System III (Ethanol 95° 45%/Demineralized water 55%), 0% propyleneglycol, read-out: Solubilities): 5100 µg/mL; solubility ([4]; ethanol/water/propyleneglycol ternary mixture, aqueous with cosolvent or surfactant or cyclodextrin, System III (Ethanol 95° 45%/Demineralized water 55%), 4% propyleneglycol, read-out: Solubilities): 5100 µg/mL; solubility ([4]; ethanol/water/propyleneglycol ternary mixture, aqueous with cosolvent or surfactant or cyclodextrin, System III (Ethanol 95° 45%/Demineralized water 55%), 6% propyleneglycol, read-out: Solubilities): 5100 µg/mL; solubility ([4]; ethanol/water/propyleneglycol ternary mixture, aqueous with cosolvent or surfactant or cyclodextrin, System III (Ethanol 95° 45%/Demineralized water 55%), 20% propyleneglycol, read-out: Solubilities): 7900 µg/mL

— US20080227763A1, “Topical hormonal composition with systemic action” (LABORATOIRE THERAMEX, priority 1998, published 2008)
